According to patent US9289503B2, “Fatty acid fumarate derivatives and their uses” (Catabasis Pharmaceuticals, Inc., priority 2010, dated 2016):

Experiments:
Assay type in all cases: cell-based
[1] = tested on: Hmox1; assay: Hmox1 target gene expression in RAW264.7 macrophages; details: RAW264.7, 2 hours pre-incubation, 100 ng/ml LPS 3 hours; FIG. 3
Method: RAW264.7 macrophages are seeded at a density of 100,000 cells/well in a 96-well plate in DMEM supplemented with 10% FBS and Penn/strep. 16 hours later, medium is aspirated and replaced with 90 μl/well of serum-free DMEM. A fatty acid fumarate conjugate, DHA and EPA are brought up in 100% EtOH to a concentration of 100 mM and then diluted 1:100 In 100% FBS for a 20× stock solution consisting of 1 mM compound and 1% EtOH. The fatty acid fumarate conjugate 20× stock solutions are diluted 1:2 in FBS supplemented with 1% EtOH for a 500 uM 10× stock solution, whereas equal volumes of the DHA and EPA 20× stock solutions are mixed to create a 10× stock solution containing 500 μm each of DHA and EPA. […] The compounds are allowed to pre-incubate for 2 hours before stimulation of 100 ng/ml LPS (10 μl of 1 μg/ml LPS is added to each well). Following 3 hours of LPS stimulation, cells are washed once in 1× PBS, aspirated dry, and flash frozen in liquid nitrogen. RNA is then isolated and converted to cDNA using the Cells to cDNA kit (Ambion) according to the manufacturer's protocol. Transcript levels are then measured using ABI Taqman primer/probe assay kits, normalized to GAPDH using the deltaCt method, and the data expressed relative to vehicle only control.

[2] = tested on: IL-1β; assay: IL-1β gene expression in LPS-stimulated RAW264.7 macrophages; details: 10 μM; 2 hours pre-incubation, 100 ng/ml LPS 3 hours; compared with 10 μM each DHA and MMF; FIG. 1
Method: RAW264.7 macrophages were seeded at a density of 100,000 cells/well in a 96-well plate in DMEM supplemented with 10% FBS and Penn/strep. 16 hours later, medium was aspirated and replaced with 90 μl/well of serum-free DMEM. A fatty acid fumarate conjugate, DHA and monomethyl-fumarate (MMF) were brought up in 100% EtOH to a concentration of 100 mM and then diluted 1:100 in 100% FBS for a stock solution consisting of 1 mM compound and 1% EtOH. these stock solutions were then diluted 1:10 in FBS supplemented with 1% EtOH to generate a 100 μM of a fatty acid fumarate conjugate and 100 μM each of DHA and MMF. 10 μl was then added to the RAW246.7 cells to generate final concentrations 10 μM of the fatty acid fumarate conjugate or 10 μM each DHA and MMF, along with vehicle only control. […] IL-1β and TNF-α transcript levels were then measured using Taqman primer/probe assay sets (Applied Biosystems), normalized to GAPDH using the deltaCt method, and the data expressed relative to vehicle only control. […]
RAW264.7 macrophages are seeded at a density of 100,000 cells/well in a 96-well plate in DMEM supplemented with 10% FBS and Penn/strep. […] Transcript levels are then measured using ABI Taqman primer/probe assay kits, normalized to GAPDH using the deltaCt method, and the data expressed relative to vehicle only control.

[3] = tested on: TNF-α; assay: TNF-α gene expression in LPS-stimulated RAW264.7 macrophages; details: 10 μM; 2 hours pre-incubation, 100 ng/ml LPS 3 hours; compared with 10 μM each DHA and MMF; FIG. 1
Method: RAW264.7 macrophages were seeded at a density of 100,000 cells/well in a 96-well plate in DMEM supplemented with 10% FBS and Penn/strep. 16 hours later, medium was aspirated and replaced with 90 μl/well of serum-free DMEM. A fatty acid fumarate conjugate, DHA and monomethyl-fumarate (MMF) were brought up in 100% EtOH to a concentration of 100 mM and then diluted 1:100 in 100% FBS for a stock solution consisting of 1 mM compound and 1% EtOH. these stock solutions were then diluted 1:10 in FBS supplemented with 1% EtOH to generate a 100 μM of a fatty acid fumarate conjugate and 100 μM each of DHA and MMF. 10 μl was then added to the RAW246.7 cells to generate final concentrations 10 μM of the fatty acid fumarate conjugate or 10 μM each DHA and MMF, along with vehicle only control. The compounds were allowed to pre-incubate for 2 hours before stimulation of 100 ng/ml LPS (10 μl of 1 μg/ml LPS was added to each well). Following 3 hours of LPS stimulation, cells were washed once in 1× PBS, aspirated dry, and flash frozen in liquid nitrogen. RNA was then isolated and converted to cDNA using the Cells to cDNA kit (Ambion) according to the manufacturer's protocol. IL-1β and TNF-α transcript levels were then measured using Taqman primer/probe assay sets (Applied Biosystems), normalized to GAPDH using the deltaCt method, and the data expressed relative to vehicle only control. […]

For `CC/C=C\C/C=C\C/C=C\C/C=C\C/C=C\C/C=C\CCC(=O)NCCNC(=O)/C=C/C(=O)OC` [Compound I-1, (E)-methyl 4-(2-(4Z,7Z,10Z,13Z,16Z,19Z)-docosa-4,7,10,13,16,19-hexaenamidoethylamino)-4-oxobut-2-enoate], which “effect on the target gene Hmox1” value [1] is on record?
Its value is “positive effect”.

What about the IL-1β gene expression [2] of the same compound?
Its IL-1β gene expression is “greater reduction”.

What about the TNF-α gene expression [3] of the same compound?
Its TNF-α gene expression is “greater reduction”.
